From US8013170B2, “Substituted pyrrolo[1,2-d][1,4]-diazonines and treatment of brain damage” (priority 2003, dated 2011)
Entries after “also recorded” stand apart in the source; their conditions may differ. Read-outs that look alike come from different tables or passages of the source.

Legend:
[1] = rcm bond
[2] = tested on: cerebellar explants; assay: Cerebellar microexplants exposed to glutamate and 3-nitropropionic acid; live neurons with neurites counted; assay type: cell-based, rat; details: for numbers of cells having neurites: administered simultaneously with glutamate (1 mM) and 3-nitropropionic acid (0.5 mM), final concentrations 1-100 nM, postnatal day 8 Wistar rat cerebellar microexplants; for recovery from / prevention of glutamate-induced neurotoxicity: compound applied simultaneously, 1-100 nM
Description: To determine the effects of the compounds of the invention on neuronal cells in vitro, a series of studies was carried out using cerebellar explants from […]. In vitro systems are suitable for studying neuronal proliferation, neurite growth, formation of nerve bundles and effects of toxins on neural cells, effects that parallel effects observed in vivo. Thus, results of studies using in vitro cerebellar explants are predictive of effects of interventions in vivo.
In a first series of studies, effects of glutamate on cerebellar explants were determined. At physiological concentrations, glutamate is a neurotransmitter in the CNS of mammals, including humans. However, at sufficiently high concentrations, glutamate is neurotoxic, resulting in neuronal cell death. Because glutamate is a naturally occurring neurotransmitter in the CNS of mammals, including humans, and because glutamate neurotoxicity is recognized in the art as reflective of neurotoxicity in general, and including cell death and degeneration, it is a valuable tool useful for identifying and characterizing agents effective in treatment of neurodegeneration and neural cell death.
Cover slips were placed into a large Petri dish and washed in 70% alcohol for 5 minutes, then washed with Millipore H2O. The cover slips were air dried, and coated with Poly-D-Lysine (1 mg/ml stock solution in PBS, 90-100 μl) for 2 hours at 34° C.
Postnatal day 8 Wistar rats were used for the study. The rats were sacrificed and placed in ice for 1 minute, decapitated and the cerebellum removed and placed on ice. Cerebellum tissue was placed in 1 ml of 0.65% glucose-supplemented PBS (10 μl 65% stock D (+)glucose/1 ml PBS) in a large Petri dish, chopped up into smaller sections and triturated with a 1 ml insulin syringe via a 23 G (0.4 mm) needle, and then squirted back into the glucose solution in the large Petri dish. The tissue was sieved through (125 μm pore size gauze) and centrifuged (2 minutes at 60 g) twice to exchange the medium into serum-free BSA-supplemented START V medium (Biochrom, Germany). The second centrifugation step was done with 1 ml of START V medium. The microexplants were reconstituted into 500 μl of START V medium and put on ice.
Two hours after PDL-coating, the slides were washed with Millipore H2O and air dried. Each slide was placed into a small Petri dish (diameter: 35 mm) and 40 μl of START V/cell suspension was added. The tissue was incubated for 2 hours at 34° C. (settlement period). START V-medium (1 ml) was then added to the Petri dish and cultivated at 34° C. in the presence of 5% CO2 in air at 100% humidity for 48 hours.
For the study, certain explant cultures were exposed to vehicle (PBS) only. In the first study (Study 1) 10 μl of toxin 1 (L-glutamate-100 mM in Millipore water; final concentration: 1 mM) and 10 μl of toxin 2 (3-nitropropionic acid-50 mM- pH 7- in Millipore water, final concentration: 0.5 mM) was applied simultaneously with the compounds to be tested (10 mM stock solution prepared in PBS and diluted to final concentrations between 1-100 nM). […]
Neurons in the explants were then evaluated for morphology (presence of neurites) and counted as live cells per microscopic field. Four fields displaying highest cell density were counted per cover slip and the data presented as mean±standard error of the mean (SEM); n=4 each. Statistical significance was evaluated by using the non-paired Student's t-test.

[3] = tested on: rats exposed to hypoxic-ischemic injury (HI); assay: Hypoxic-ischemic injury (modified Levine model), histological tissue damage score; assay type: in vivo, rat; details: 100 pM icv, 20 μl over 20 minutes, 2 hours after hypoxic-ischemic insult; histology 5 days after injury; adult male Wistar rats; compared to vehicle treated group, p<0.001
Description: To determine whether compounds of the invention might prevent neuronal injury in response to stroke, cardiac arterial bypass graft surgery (CABG) or other hypoxic insults, a series of studies were carried out in rats that had been exposed to hypoxic-ischemic injury (HI). Adult rats (Wistar, 280-310 g, male) were used. The modified Levine model preparation and experimental procedures were used (Rice et al, 1981, Ann. Neurol.: 9: 131-141; Guan et al J., 1993, Cereb. Blood Flow Metab.: 13(4): 609-16). These procedures in brief, consist of an HI injury induced by unilateral carotid artery ligation followed by inhalational asphyxia in the animals with an implanted lateral ventricular cannula. A guide cannula was stereotaxically placed on the top of the dura 1.5 mm to the right of the mid-line and 7.5 mm anterior to the interaural zero plane under halothane anaesthesia. […]
Coronal sections 8 μm in thickness were cut from the striatum, cerebral cortex and hippocampus and were stained with thionin and acid fuchsin. The histological outcome was assessed at three levels: (1) the mid level of the striatum, (2) where the completed hippocampus first appeared and (3) the level where the ventral horn of the hippocampus just appears. The severity of tissue damage was scored in the striatum, cortex and the CA1-2, CA3, CA4 and dentate gyrus of the hippocampus. […]

Structure (SMILES): CC(C)(C)OC(=O)[C@@H]1CC[C@@H]2CC=CCN(C(=O)OCc3ccccc3)CC(=O)N21
- ring closure, yield of all isomers ([1]; from C=CC[C@H]1CC[C@@H](C(=O)OC(C)(C)C)N1C(=O)CN(CC=C)C(=O)OCc1ccccc1, Grubbs I (bis(tricyclohexylphosphine)benzylideneruthenium dichloride), dichloromethane, 4.03 mM, 40.0 °C, 48.0 h): 46%

Structure (SMILES): CC(C)(C)OC(=O)[C@@H]1CC[C@H]2CC=CCN(C(=O)OCc3ccccc3)CC(=O)N21
- ring closure, yield of all isomers ([1]; from C=CC[C@@H]1CC[C@@H](C(=O)OC(C)(C)C)N1C(=O)CN(CC=C)C(=O)OCc1ccccc1, bis(tricyclohexylphosphine)benzylidineruthenium dichloride (Grubbs I), dichloromethane, 4.1 mM, 40.0 °C, 48.0 h): 42%

Structure (SMILES): O=C(O)[C@@H]1CCCCNCC(=O)N2CCC[C@H]2C(=O)N[C@H](C(=O)O)C1
- ring closure, yield of all isomers ([1]; from C=CC[C@H](C[C@H](NC(=O)[C@@H]1CCCN1C(=O)CN(CC=C)C(=O)OCc1ccccc1)C(=O)OCc1ccccc1)C(=O)OCc1ccccc1, Grubbs II generated in situ (bis(tricyclohexylphosphine)benzylideneruthenium dichloride + SIMes.HBF4/KOtBu), benzene, 2.27 mM, 45.0 °C, 65.0 h, 2 steps): 58%

Structure (SMILES): N[C@@H](CCC(=O)O)C(=O)O [Glutamate, L-glutamate, reference compound]
- loss of cerebellar neurons having neurites ([2]; glutamate 1 mM, compared to vehicle-treated controls): ~80%

Structure (SMILES): N[C@H]1CCCC[C@@H]2CC[C@@H](C(=O)N[C@@H](CCC(=O)O)C(=O)O)N2C1=O.O=C(O)C(F)(F)F [compound 48, (2S, 3′S, 8′R, 11′S) 2-{[(3′-Amino-1′-aza-2′-oxobicyclo[6.3.0]-undecyl)-11′-carbonyl]amino}-1,5-pentanedioic acid trifluoroacetate salt]
- numbers of cells having neurites [2]: significantly increased the numbers of cells having neurites in a dose-dependent manner
- recovery from / prevention of glutamate-induced neurotoxicity ([2]; glutamate 1 mM, trifluoroacetate salt): significant recovery; also recorded: prevented glutamate-induced neurotoxicity

Structure (SMILES): O=C(O)C(F)(F)F.O=C(O)CC[C@H](NC(=O)[C@@H]1CC[C@@H]2CCCCNCC(=O)N21)C(=O)O [compound 68, (2S, 9′S, 12′S)-2-{[(1′,4′-Diaza-2′-oxobicyclo[7.3.0]dodecyl)-12′-carbonyl]amino}-1,5-pentanedioic acid trifluoroacetate]
- numbers of cells having neurites [2]: significantly increased the numbers of cells having neurites in a dose-dependent manner
- recovery from / prevention of glutamate-induced neurotoxicity ([2]; glutamate 1 mM): significant recovery; also recorded: prevented glutamate-induced neurotoxicity
- tissue damage (damage score) in striatum, cortex and hippocampus [3]: significantly reduced the tissue damage in each brain region examined
